According to ChEMBL document CHEMBL4373684, “Synthesis of new lophine-carbohydrate hybrids as cholinesterase inhibitors: cytotoxicity evaluation and molecular modeling” (Medchemcomm, 2019):
pIC50: −log10 of the molar value.

What was measured:
Cholinesterase = Cholinesterase (Mus musculus, UniProt Q03311)
Description: Inhibition of BuChE in Swiss mouse serum using butyrylthiocholine iodide as substrate incubated for 10 mins followed by substrate addition and measured after 10 mins

Acetylcholinesterase = target: T1, Acetylcholinesterase (Mus musculus, UniProt P21836); experiment: Inhibition of AChE in Swiss mouse brain using acetylthiocholine iodide as substrate incubated for 10 mins followed by substrate addition and measured after 10 mins; type: tissue-based
T1 sequence (P21836 whole entry): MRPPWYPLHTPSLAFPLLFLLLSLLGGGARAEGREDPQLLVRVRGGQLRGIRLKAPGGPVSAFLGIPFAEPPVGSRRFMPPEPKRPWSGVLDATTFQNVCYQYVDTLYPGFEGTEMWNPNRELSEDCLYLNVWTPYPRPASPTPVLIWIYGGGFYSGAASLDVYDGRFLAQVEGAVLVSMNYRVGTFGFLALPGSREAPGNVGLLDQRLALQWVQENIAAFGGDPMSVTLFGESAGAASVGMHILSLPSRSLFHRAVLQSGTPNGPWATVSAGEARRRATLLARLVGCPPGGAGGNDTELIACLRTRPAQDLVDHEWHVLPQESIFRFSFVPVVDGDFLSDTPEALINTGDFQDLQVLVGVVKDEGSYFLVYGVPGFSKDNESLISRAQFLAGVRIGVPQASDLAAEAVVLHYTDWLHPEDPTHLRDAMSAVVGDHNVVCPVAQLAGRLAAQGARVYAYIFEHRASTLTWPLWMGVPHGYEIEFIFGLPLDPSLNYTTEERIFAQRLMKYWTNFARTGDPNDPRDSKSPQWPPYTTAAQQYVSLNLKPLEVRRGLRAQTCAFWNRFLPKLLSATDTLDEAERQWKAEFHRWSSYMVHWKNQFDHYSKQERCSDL

in vitro [1] = details: PAMPA
Description: Fraction absorbed of the compound by PAMPA

in vitro [2] = details: PAMPA; remark: listed apart in the source
Description: Effective permeability of compound incubated for 8 hrs by PAMPA

C6 = experiment: cells; details: Rattus norvegicus, C6, 24 h
Description: Cytotoxicity against rat C6 cells assessed as reduction in cell viability incubated for 24 hrs by MTT assay

HepG2 = experiment: cells; details: Homo sapiens, HepG2, 24 h
Description: Cytotoxicity against human HepG2 cells assessed as reduction in cell viability incubated for 24 hrs by MTT assay

Vero = experiment: cells; details: Chlorocebus sabaeus, 24 h
Description: Cytotoxicity against monkey Vero cells assessed as reduction in cell viability incubated for 24 hrs by MTT assay

[3] = Selectivity index, ratio of IC50 for rat C6 cells to IC50 for inhibition of BuChE in Swiss mouse serum
[4] = Selectivity index, ratio of IC50 for human HepG2 cells to IC50 for inhibition of AChE in Swiss mouse brain
[5] = Selectivity index, ratio of IC50 for monkey Vero cells to IC50 for inhibition of AChE in Swiss mouse brain
[6] = Selectivity index, ratio of IC50 for monkey Vero cells to IC50 for inhibition of BuChE in Swiss mouse serum
[7] = Selectivity index, ratio of IC50 for rat C6 cells to IC50 for inhibition of AChE in Swiss mouse brain
[8] = Selectivity index, ratio of IC50 for human HepG2 cells to IC50 for inhibition of BuChE in Swiss mouse serum

Sequence of Cholinesterase (Q03311 whole entry): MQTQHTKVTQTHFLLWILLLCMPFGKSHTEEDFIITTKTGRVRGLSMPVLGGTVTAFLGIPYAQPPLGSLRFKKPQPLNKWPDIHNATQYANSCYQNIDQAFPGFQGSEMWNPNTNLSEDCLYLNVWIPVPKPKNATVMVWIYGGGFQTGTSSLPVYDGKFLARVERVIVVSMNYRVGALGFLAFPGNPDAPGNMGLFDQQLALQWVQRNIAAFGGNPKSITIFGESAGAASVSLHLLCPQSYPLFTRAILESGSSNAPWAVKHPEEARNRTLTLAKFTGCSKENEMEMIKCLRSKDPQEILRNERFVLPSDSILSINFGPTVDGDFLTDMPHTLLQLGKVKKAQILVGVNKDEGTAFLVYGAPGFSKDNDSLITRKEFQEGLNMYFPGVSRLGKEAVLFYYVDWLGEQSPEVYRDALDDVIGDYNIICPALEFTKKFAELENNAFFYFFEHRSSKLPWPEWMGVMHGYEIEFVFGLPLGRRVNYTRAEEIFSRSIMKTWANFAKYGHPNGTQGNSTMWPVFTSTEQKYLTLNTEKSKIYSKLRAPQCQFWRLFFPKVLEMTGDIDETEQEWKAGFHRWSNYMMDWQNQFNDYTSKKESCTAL

| Fa (in vitro [1]) [%] | SMILES | pIC50 (Cholinesterase) | pIC50 (Acetylcholinesterase) | further results |
| --- | --- | --- | --- | --- |
|  | CO[C@@H]1O[C@H](CNCCCCCCn2c(-c3ccccc3)nc(-c3ccccc3)c2-c2ccccc2)[C@H]2OC(C)(C)O[C@@H]12 | 6.40 | < 5.00 |  |
| 23.5 | CCn1cc(C(=O)O)c(=O)c2cc(F)c(N3CCNCC3)cc21 [NORFLOXACIN] |  |  |  |
|  | CC1(C)O[C@H]2O[C@H](CNCCCCCCCCn3c(-c4ccccc4)nc(-c4ccccc4)c3-c3ccccc3)[C@H](O)[C@H]2O1 | 5.89 | < 5.00 |  |
| 99.2 | CO/N=C(\C(=O)N[C@@H]1C(=O)N2C(C(=O)O)=C(CSc3nc(=O)c(=O)[nH]n3C)CS[C@H]12)c1csc(N)n1 [CEFTRIAXONE] |  |  | Papp at 8 h (in vitro [2]): 0.38 ×10⁻⁶ cm/s |
|  | CC1(C)O[C@H]2O[C@H](CNCCCCCn3c(-c4ccccc4)nc(-c4ccccc4)c3-c3ccccc3)[C@H](O)[C@H]2O1 | 6.55 | < 5.00 | pIC50 (C6): < 3.60; pIC50 (HepG2): 3.93; pIC50 (Vero): 3.94 |
|  | c1ccc(-c2nc(-c3ccccc3)c(-c3ccccc3)[nH]2)cc1 | < 5.00 | < 5.00 |  |
|  | CC1(C)O[C@H]2O[C@H](CNCCCCCCCn3c(-c4ccccc4)nc(-c4ccccc4)c3-c3ccccc3)[C@H](O)[C@H]2O1 | 6.40 | < 5.00 |  |
| 87.3 | CNC(=C[N+](=O)[O-])NCCSCc1ccc(CN(C)C)o1 [RANITIDINE] |  |  |  |
| 100 | CC(C)NCC(O)COc1ccc(CC(N)=O)cc1 (centres undefined) [ATENOLOL] |  |  |  |
| 87.9 | O=c1ccc2ccccc2o1 [COUMARIN] |  |  | Papp at 8 h (in vitro [2]): 26.2 ×10⁻⁶ cm/s |
|  | CC1(C)O[C@H]2[C@@H](O1)[C@@H](CNCCCCCCCn1c(-c3ccccc3)nc(-c3ccccc3)c1-c1ccccc1)O[C@@H]1OC(C)(C)O[C@@H]12 | 6.21 | < 5.00 | Ratio IC50 [3]: 1400; Ratio IC50 [6]: 1400; Ratio IC50 [8]: 1400 |
|  | CC1(C)O[C@H]2O[C@H](CNCCCCn3c(-c4ccccc4)nc(-c4ccccc4)c3-c3ccccc3)[C@H](O)[C@H]2O1 | 6.52 | < 5.00 |  |
|  | CC1(C)O[C@H]2O[C@H](CNCCCCCCn3c(-c4ccccc4)nc(-c4ccccc4)c3-c3ccccc3)[C@H](O)[C@H]2O1 | 6.15 | < 5.00 |  |

| SMILES | Fa (in vitro [1]) [%] | pIC50 (Cholinesterase) | pIC50 (Acetylcholinesterase) | further results |
| --- | --- | --- | --- | --- |
| CC1(C)O[C@H]2[C@@H](O1)[C@@H](CNCCCCCCn1c(-c3ccccc3)nc(-c3ccccc3)c1-c1ccccc1)O[C@@H]1OC(C)(C)O[C@@H]12 | 5.9 | 6.77 | < 5.00 | pIC50 (C6): < 3.60; pIC50 (HepG2): < 3.60; pIC50 (Vero): < 3.60; Papp at 8 h (in vitro [2]): 0.54 ×10⁻⁶ cm/s |
| CO[C@@H]1O[C@H](CNCCCCCCCn2c(-c3ccccc3)nc(-c3ccccc3)c2-c2ccccc2)[C@H]2OC(C)(C)O[C@@H]12 | 20.4 | 6.30 | 5.56 | Ratio IC50 [3]: 500; Ratio IC50 [4]: 90; Ratio IC50 [5]: 90; pIC50 (C6): < 3.60; Ratio IC50 [6]: 500; Ratio IC50 [7]: 90; pIC50 (HepG2): < 3.60; Ratio IC50 [8]: 500; pIC50 (Vero): < 3.60; Papp at 8 h (in vitro [2]): 2.28 ×10⁻⁶ cm/s |
